The subject of test [1] is 96 human protein or lipid kinases. Put plainly: KINOMESCAN binding profile. How it is done:
To determine the specificity of STAT blockade, we asked whether LY5 affected the phosphorylation of other family members including STAT1, STAT2, STAT4, and STAT6 [30–32]. […] To further define any potential off-target effects, we profiled the direct (steric) or indirect (allosteric) binding of LY5 to the binding sites of 96 human protein or lipid kinases (KINOMESCAN, www.kinomescan.com).
Supplementary file pone.0181885.s001.pdf: S1 Fig Kinomescan results for LY5. […] At 5 μM LY5 (B), only interaction with PLK3 was identified, mapped S-score (35) = 0.01. (PDF) Click here for additional data file.

Test [2] deals with RH30, ES-3, ES-7, EW-8 cells. Put plainly: Combined STAT3 knockdown-LY5 cell viability assay (Alamar Blue). In kind it is cell-based, human. The note with it: NC siRNA or STAT3 siRNA 48 hrs, then 0.5 μM or 1 μM LY5 48 hrs. On the procedure: Cell lines were transfected with 10 nM of AllStars negative control siRNA or human STAT3-targeting siRNA #7 (5’-[…]-3’) (Qiagen, Germantown, MD) using Lipofectamine RNAiMAX (Life Technologies, Carlsbad, CA) according to the manufacturer’s instructions. After 72 hrs of transfection, cells were harvested and lysed for immunoblotting. For the combined STAT3 knockdown–LY5 cell viability assay, negative control siRNA or STAT3 siRNA #7 was transfected into cell lines. After 48 hrs, cells were treated with 0.5 μM or 1 μM of LY5 for another 48 hrs. Cell viability was then analyzed using Alamar Blue as described above.
Fig 6 Effects of LY5 are not mediated via STAT3 inhibition. (A) Antitumor activity of LY5 against OS-1 PDX model of OS. […] After 72 hours of transfection, cells were harvested and analyzed for total (T) STAT3 and GAPDH protein expression by immunoblotting. […] Cell viability was then determined using Alamar Blue staining. […]
(A) ES cell line ES-3 was transfected with either negative control siRNA (NC siRNA) or STAT3-targeting siRNA #7. After 72 hrs of transfection, cells were harvested and analyzed for total (T) STAT3 and GAPDH protein expression by immunoblotting. […] Cell viability was evaluated using Alamar Blue staining. […]
For orientation: Alamar Blue is a resazurin reagent that responds to reducing activity.

For test [3], the system named is RH10, RH36, OS-17 and OS-1. Put plainly: Subcutaneous PDX models of RMS and OS, overall. The note with it: subcutaneous PDX models RH10, RH36, OS-17, OS-1. In kind it is in vivo, mice. On the procedure: C.B-17SC scid^-/- female mice (Taconic Farms, Germantown NY), were used to propagate subcutaneously implanted tumors. All mice were maintained under barrier conditions and experiments were conducted using protocols and conditions approved by the institutional animal care and use committee at University of Texas Health Science Center at San Antonio. Ten mice were used in each control or treatment group. Tumor volumes (cm^3) were determined and responses were determined using three activity measures as previously described.
To further examine the efficacy of LY5, we administered LY5 using subcutaneous PDX models of RMS (RH10 and RH36) and OS (OS-17 and OS-1). RH10, RH36 and OS-1 were derived from tissue explants, therefore no corresponding cell lines exist. Tumors were harvested 2 hrs after final drug administration. […] In addition, STAT3 phosphorylation was not observed in control or treated tumor derived from OS-17, and inhibition of STAT3 phosphorylation was not observed in OS-1 PDX models treated with 40 mg/kg twice daily.

Another test relates to MG63.3 cells. Put plainly: Sulforhodamine B cytotoxicity / cell viability assay. In kind it is cell-based. The following applies: Homo sapiens, MG-63.3. On the procedure: (§1) Murine K7M2 and human MG63.3 OS cells were treated with increasing concentrations of LY5 for 2 hrs or 7 hrs. Western blotting was performed for pSTAT3 and STAT3 as indicated above to confirm inhibition of STAT3 phosphorylation in the cell lines prior to initiation of the PuMA assay. In addition, a sulforhodamine B colorimetric assay was performed to assess the cytotoxicity of LY5 in K7M2 and MG63.3 cells as previously described.
(§2) MG63.3 and K7M2 cell lines were exposed to increasing concentrations of LY5 to determine the IC50 (A). Western blot analysis was performed to determine the dose and duration of LY5 exposure required to inhibit STAT3 phosphorylation (B-C). Serial imaging of fluorescently labeled MG63.3 and K7M2 cells was performed in ex vivo LY5 treated lung sections (D). Metastatic burden was quantified by evaluation of the percent tumor burden (mean normalized fluorescent area). Data are reported as the mean ± standard deviation. In MG 63.3 experiment, p < 0.0001 Kruskal-Wallis test, p < 0.05 10 μM vs control at days 7, 14, and 21, 10 μM vs 1 μM at days 7, 14, and 21, 50 μM vs control at days 7, 14, and 21, and 50 μM vs 10 μM at days 7, 14, and 21 post-test Dunn. In K7M2 experiment, p < 0.0001 Kruskal-Wallis test, p < 0.05 10 μM vs control at days 14 and 21, 10 μM vs 0.1 μM at days 14 and 21, and 10 μM vs 1 μM at days 14 and 21, post-test Dunn.

In the next test the test system is K7M2 cells. The description is as above. The note with it: Mus musculus. Format: cell-based, murine. On the procedure:
as §1, §2

The target of another test is T1, STAT3 (Mus musculus, UniProt P42227).
T1 construct: endogenous in cells; host or cells: K7M2
In words: Western blot of pSTAT3 in K7M2 cells. Format: cell-based, murine. How it is done:
as §1, §2
A general note: Immunoblotting shows a protein as a band on a membrane.

T1 sequence (P42227 whole entry): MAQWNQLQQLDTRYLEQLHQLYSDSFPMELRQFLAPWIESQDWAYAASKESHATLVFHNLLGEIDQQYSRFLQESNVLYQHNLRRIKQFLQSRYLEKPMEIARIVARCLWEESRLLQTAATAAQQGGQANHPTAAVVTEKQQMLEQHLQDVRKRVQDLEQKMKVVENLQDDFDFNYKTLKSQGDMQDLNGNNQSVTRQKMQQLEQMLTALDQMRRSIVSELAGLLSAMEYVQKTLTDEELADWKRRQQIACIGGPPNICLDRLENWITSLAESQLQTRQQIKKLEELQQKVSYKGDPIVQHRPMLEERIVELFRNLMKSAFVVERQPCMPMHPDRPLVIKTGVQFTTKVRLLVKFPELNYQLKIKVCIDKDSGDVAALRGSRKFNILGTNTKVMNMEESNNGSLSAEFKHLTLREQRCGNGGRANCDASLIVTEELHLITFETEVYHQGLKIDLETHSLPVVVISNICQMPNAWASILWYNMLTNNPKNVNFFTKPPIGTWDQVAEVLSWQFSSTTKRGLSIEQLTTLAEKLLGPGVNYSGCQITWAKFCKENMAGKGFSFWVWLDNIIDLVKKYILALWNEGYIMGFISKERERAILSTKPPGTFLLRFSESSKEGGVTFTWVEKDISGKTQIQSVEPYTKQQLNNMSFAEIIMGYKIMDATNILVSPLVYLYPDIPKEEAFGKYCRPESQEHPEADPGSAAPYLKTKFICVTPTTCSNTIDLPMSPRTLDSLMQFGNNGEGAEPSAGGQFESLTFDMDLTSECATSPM

Take `NS(=O)(=O)c1cccc2c1C(=O)C=C(Nc1cccnc1)C2=O` [LY5, 5,8-dioxo-6-(pyridin-3-ylamino)-5,8-dihydronaphthalene-1-sulfonamide]: the “binding to any of 96 kinases” value in test [1] (1 μM LY5) is recorded as “no binding”. The “mapped S-score (35)” value is 0 in test [1] (1 μM LY5) and 0.01 in test [1] (5 μM LY5). The “response to LY5 (cell viability) with or without STAT3 depletion” value in test [2] is recorded as “comparable”. The “PDX growth compared to control” value in test [3] is given as “did not decrease PDX growth”. The figures for the IC50 in the test with MG63.3 cells and in the test on K7M2 cells were 3000 nM and 1500 nM, respectively. Moreover, the “concentration for complete inhibition of STAT3 in vitro” value on STAT3 (K7M2) amounted to 10 µM. Also, the “exposure time for effective inhibition of STAT3 phosphorylation” value on STAT3 (K7M2, 1 μM LY5) worked out at 4 h. The “concentration that decreased STAT3 phosphorylation” value on STAT3 (K7M2, 2 hrs treatment) was determined as 1 µM.
